Data set [1] in a line: Absorption and fluorescence spectra of compounds in PBS or HEPES. The class given is physicochemical. The settings on record: for peak excitation wavelength: excitation wavelength used for fluorescence spectra of FIG. 1A/1B; for fluorescence emission, 540 nm (Ex in PBS): excited at 540 nm; for fluorescence emission, 540 nm (Ex in PBS) / fluorescence emission, λ1 nm (Ex in HEPES) / fluorescence emission, λ1 nm (Ex in PBS): 20 μM; for fluorescence emission, λ1 nm (Ex in HEPES) / fluorescence emission, λ1 nm (Ex in PBS): excited at absorption peak 1 (λ1). Put shortly:
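Compounds (20 μM working solutions) in PBS or HEPES, read in quartz cuvette against buffer baseline, absorbance scanned 280–800 nm. Emission scanned 400–900 nm in 1 nm steps with excitation at each compound's first absorption peak or 540 nm, ten reads per point. DRAQ5 served as reference; spectra normalised to peak.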

A further data set relates to A549 live cells. In words: Loading of A549 live cells, wide-field fluorescence microscopy. The class given is cell-based, human. Particulars: 20 μM, 30 min incubation, FIG. 3. Put shortly:
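Live A549 cells incubated 30 min at 37° C. in the dark with compound at 20 μM (DRAQ5 at 20 μM as reference), imaged unwashed. Uptake and localisation of red fluorescence assessed by low-resolution wide-field fluorescence microscopy, ×10 0.3 NA objective, 30 ms exposure.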

In another data set the test system is A549 cells. As to the kind of experiment: Constant exposure to probes, time-lapse and flow cytometry after 72 h. Particulars: within 24 hours. The class given is cell-based, human. The method, then: Timelapse imaging, in accordance with Errington R J et al, Time-lapse microscopy approaches to track cell cycle and lineage progression at the single-cell level, Curr Protoc Cytom. 2013 April; Chapter 12: Unit 12.4, was carried out in relation to cells with exposure to probe compounds.
In this regard, A549 cells were seeded in a 24 well coverslip bottomed-plate, cultured overnight in McCoys media for 24 or 48 hours. The plates were placed onto an inverted automated microscope, with the capacity for acquiring an image sequence of different wells (therefore exposure to different agent labelling). An Axiovert 100 microscope (Carl Zeiss, Welwyn Garden City, UK) was fitted with an incubator for 37° C./5% CO2 maintenance (Solent Scientific, Portsmouth, UK), and an ORCA-ER CCD camera (Hamamatsu, Reading, UK). Illumination was controlled by a shutter in front of the transmission lamp, and an x, y positioning stage with separate z-focus (Prior Scientific, Cambridge, UK) controlled multi-field acquisition. Image capture was controlled using Metamorph software.
Cells were exposed to a constant dose (0-5 μM) or a pulsed dose of 0 or 20 μM agent for 15 minutes followed by washout with warmed full media. […]
A549 cell lines were monitored using time-lapse collection and lineage progression, in constant exposure to compounds of the invention. The effects on cells were also determined. […]
On the technique in general: Flow cytometry measures light scatter and fluorescence of single cells or particles in a stream.

SMILES strings stand for the structures.

On to `COC(CC(=O)NCCNc1ccc(NCCN(C)C)c2c1C(=O)c1ccccc1C2=O)OC` [BST-110, N-(2-(4-(2-(dimethylamino)ethylamino)-9,10-dioxo-9,10-dihydroanthracen-1-ylamino)ethyl)-3,3-dimethoxypropanamide], for which, in data set [1], the peak excitation wavelength is listed as 583 nm; the “fluorescence emission, 540 nm (Ex in PBS)” value was found to be 662 nm; the “fluorescence emission, λ1 nm (Ex in HEPES)” value is listed as 660 nm; the “fluorescence emission, λ1 nm (Ex in PBS)” value was determined as 665.5 nm. In addition, the “fluorescence brightness / background in live cells” value in the data set with A549 live cells is “very bright cellular fluorescence”. Moreover, the “localisation of probe during constant exposure” value in the data set with A549 cells is on record as “predominantly in a membrane compartment of the cytoplasm”.

Regarding `COC(CNC(=O)CCNc1ccc(NCCN(C)C)c2c1C(=O)c1ccccc1C2=O)OC` [BST-109, N-(2,2-Dimethoxyethyl)-3-(4-(2-(dimethylamino)ethylamino)-9,10-dioxo-9,10-dihydroanthracen-1-ylamino)propanamide], in data set [1], the peak excitation wavelength is 584 nm; the “fluorescence emission, 540 nm (Ex in PBS)” value amounted to 660 nm; the “fluorescence emission, λ1 nm (Ex in HEPES)” value worked out at 660 nm; the “fluorescence emission, λ1 nm (Ex in PBS)” value amounted to 666 nm. Besides, in the data set on A549 live cells, the “fluorescence brightness / background in live cells” value was “very bright cellular fluorescence”. In the data set with A549 cells, the “localisation of probe during constant exposure” value was “predominantly in a membrane compartment of the cytoplasm”.

The values above are taken from US11447638B2, “Acetalanthraquinone derivatives useful for cellular staining” (BIOSTATUS LIMITED, priority 2016, dated 2022).
